Test system: MV-4-11 cells
Experiment: Gene expression microarray analysis (Affymetrix PrimeView) and GSEA
Type: cell-based, human
Design: RFU PODN (11730768_x_at) / Fold change /veh PODN (11730768_x_at) / RFU LINC00158 (11744669_a_at) / Fold change /veh LINC00158 (11744669_a_at) / RFU DUSP10 (11751237_a_at) / Fold change /veh DUSP10 (11751237_a_at) / RFU ID3 (11757404_x_at) / Fold change /veh ID3 (11757404_x_at) / RFU PLEKHG5 (11737974_s_at) / Fold change /veh PLEKHG5 (11737974_s_at) / RFU LRRC4B (11730491_at) / Fold change /veh LRRC4B (11730491_at) / RFU GIMAP4 (11747438_a_at) / Fold change /veh GIMAP4 (11747438_a_at) / RFU KRT8 (11758183_x_at) / Fold change /veh KRT8 (11758183_x_at) / RFU CNN1 (11734310_a_at) / Fold change /veh CNN1 (11734310_a_at) / RFU VPS37D (11726825_at) / Fold change /veh VPS37D (11726825_at) / RFU C10orf10 (11716522_x_at) / Fold change /veh C10orf10 (11716522_x_at) / RFU KIR2DL2 /// KIR2DL4 /// KIR2DL5A /// KIR2DL5B /// KIR2DS1 /// KIR2DS2 /// KIR2DS3 /// KIR2DS4 /// KIR3DL3 /// KIR3DL3 /// KIR3DS1 (11738374_at) / Fold change /veh KIR2DL2 /// KIR2DL4 /// KIR2DL5A /// KIR2DL5B /// KIR2DS1 /// KIR2DS2 /// KIR2DS3 /// KIR2DS4 /// KIR3DL3 /// KIR3DL3 /// KIR3DS1 (11738374_at) / RFU C1QL1 (11718748_at) / Fold change /veh C1QL1 (11718748_at) / RFU TMPRSS4 (11747572_a_at) / Fold change /veh TMPRSS4 (11747572_a_at) / RFU HAMP (11756126_x_at) / Fold change /veh HAMP (11756126_x_at) / RFU RNFT2 (11725882_a_at) / Fold change /veh RNFT2 (11725882_a_at) / RFU NR4A2 (11747474_a_at) / Fold change /veh NR4A2 (11747474_a_at) / RFU ABCC12 (11746883_a_at) / Fold change /veh ABCC12 (11746883_a_at) / RFU TMEM136 (11760407_x_at) / Fold change /veh TMEM136 (11760407_x_at) / RFU CLDN22 /// WWC2 (11732394_at) / Fold change /veh CLDN22 /// WWC2 (11732394_at) / RFU HLA-DPB1 (11760878_x_at) / Fold change /veh HLA-DPB1 (11760878_x_at) / RFU SPINT1 (11716480_a_at) / Fold change /veh SPINT1 (11716480_a_at) / RFU GAP43 (11754022_s_at) / Fold change /veh GAP43 (11754022_s_at) / RFU A4GNT (11735810_at) / Fold change /veh A4GNT (11735810_at) / RFU PRB3 (11715151_x_at) / Fold change /veh PRB3 (11715151_x_at) / RFU TUBB4B (11761932_at) / Fold change /veh TUBB4B (11761932_at) / RFU CAPN14 (11732068_a_at) / Fold change /veh CAPN14 (11732068_a_at) / RFU TMCC2 (11721928_a_at) / Fold change /veh TMCC2 (11721928_a_at) / RFU IRGQ (11745062_a_at) / Fold change /veh IRGQ (11745062_a_at) / RFU FAM174B (11720279_a_at) / Fold change /veh FAM174B (11720279_a_at) / RFU TMPRSS4 (11748680_a_at) / Fold change /veh TMPRSS4 (11748680_a_at) / RFU FAM212B (11763350_a_at) / Fold change /veh FAM212B (11763350_a_at) / RFU PLEKHG5 (11743358_a_at) / Fold change /veh PLEKHG5 (11743358_a_at) / RFU ZSCAN30 (11745921_a_at) / Fold change /veh ZSCAN30 (11745921_a_at) / RFU CMKLR1 (11741424_a_at) / Fold change /veh CMKLR1 (11741424_a_at) / RFU LOC101060620 /// MAPK8IP1 (11723275_at) / Fold change /veh LOC101060620 /// MAPK8IP1 (11723275_at) / RFU SPTSSB (11747773_x_at) / Fold change /veh SPTSSB (11747773_x_at) / RFU PRSS12 (11739890_at) / Fold change /veh PRSS12 (11739890_at) / RFU BIN1 (11741810_x_at) / Fold change /veh BIN1 (11741810_x_at) / RFU WNT11 (11732464_a_at) / Fold change /veh WNT11 (11732464_a_at) / RFU C10orf10 (11716521_a_at) / Fold change /veh C10orf10 (11716521_a_at) / RFU C5orf56 (11738089_at) / Fold change /veh C5orf56 (11738089_at) / RFU CYB561 (11721691_x_at) / Fold change /veh CYB561 (11721691_x_at) / RFU ANKRD19P (11752326_a_at) / Fold change /veh ANKRD19P (11752326_a_at) / RFU OR2T12 /// OR2T33 /// OR2T8 (11738714_s_at) / Fold change /veh OR2T12 /// OR2T33 /// OR2T8 (11738714_s_at) / RFU VCAN (11748164_a_at) / Fold change /veh VCAN (11748164_a_at) / RFU JSRP1 (11732532_at) / Fold change /veh JSRP1 (11732532_at) / RFU KRTAP10-11 (11738290_x_at) / Fold change /veh KRTAP10-11 (11738290_x_at) / RFU MYO3A (11730013_a_at) / Fold change /veh MYO3A (11730013_a_at) / RFU EBF3 (11725865_a_at) / Fold change /veh EBF3 (11725865_a_at) / RFU CAMK2N1 (11719241_x_at) / Fold change /veh CAMK2N1 (11719241_x_at) / RFU C5orf56 (11738088_a_at) / Fold change /veh C5orf56 (11738088_a_at) / RFU OLFML3 (11715873_a_at) / Fold change /veh OLFML3 (11715873_a_at) / RFU LOC100653217 /// NTM (11731650_a_at) / Fold change /veh LOC100653217 /// NTM (11731650_a_at) / RFU MAPK11 (11762145_a_at) / Fold change /veh MAPK11 (11762145_a_at) / RFU FIZ1 (11724087_x_at) / Fold change /veh FIZ1 (11724087_x_at) / RFU OASL (11726364_x_at) / Fold change /veh OASL (11726364_x_at) / RFU SOX15 (11748057_x_at) / Fold change /veh SOX15 (11748057_x_at) / RFU CD79A (11719716_a_at) / Fold change /veh CD79A (11719716_a_at) / RFU HIST1H1D (11736915_at) / Fold change /veh HIST1H1D (11736915_at) / RFU CASKIN2 (11723855_a_at) / Fold change /veh CASKIN2 (11723855_a_at) / RFU LOC730098 (11760151_x_at) / Fold change /veh LOC730098 (11760151_x_at) / RFU OR4N2 (11742367_at) / Fold change /veh OR4N2 (11742367_at) / RFU PRRT2 (11749266_a_at) / Fold change /veh PRRT2 (11749266_a_at) / RFU SNX32 (11753110_a_at) / Fold change /veh SNX32 (11753110_a_at) / RFU CDHR5 (11726645_a_at) / Fold change /veh CDHR5 (11726645_a_at) / RFU RCAN1 (11760418_a_at) / Fold change /veh RCAN1 (11760418_a_at) / RFU FAM167A (11723789_a_at) / Fold change /veh FAM167A (11723789_a_at) / RFU FAM26E (11764081_at) / Fold change /veh FAM26E (11764081_at) / RFU ISYNA1 (11749810_s_at) / Fold change /veh ISYNA1 (11749810_s_at) / RFU ACY1 (11761880_at) / Fold change /veh ACY1 (11761880_at) / RFU 11764098_at / Fold change /veh 11764098_at / RFU SAMD14 (11745864_x_at) / Fold change /veh SAMD14 (11745864_x_at) / RFU NPB (11741838_a_at) / Fold change /veh NPB (11741838_a_at) / RFU TMPRSS6 (11731388_a_at) / Fold change /veh TMPRSS6 (11731388_a_at) / RFU KRTAP10-2 (11738614_at) / Fold change /veh KRTAP10-2 (11738614_at) / RFU ARHGAP8 /// PRR5-ARHGAP8 (11727945_x_at) / Fold change /veh ARHGAP8 /// PRR5-ARHGAP8 (11727945_x_at) / RFU KRTAP5-7 /// NADSYN1 (11734609_at) / Fold change /veh KRTAP5-7 /// NADSYN1 (11734609_at) / RFU RASL12 (11751679_a_at) / Fold change /veh RASL12 (11751679_a_at) / RFU CDKN2B (11736163_a_at) / Fold change /veh CDKN2B (11736163_a_at) / RFU PRF1 (11729649_at) / Fold change /veh PRF1 (11729649_at) / RFU, ZNF638 /// ZNF638-IT1 / Fold change vs veh, ZNF638 /// ZNF638-IT1 / RFU, PANK3 / Fold change vs veh, PANK3 / RFU, SH3YL1 / Fold change vs veh, SH3YL1 / RFU, ZEB2 / Fold change vs veh, ZEB2 / RFU, NRIP1 / Fold change vs veh, NRIP1 / RFU, PTTG1IP / Fold change vs veh, PTTG1IP / RFU, CAPN2 / Fold change vs veh, CAPN2 / RFU, MED14 / Fold change vs veh, MED14 / RFU, SNORA58 / Fold change vs veh, SNORA58 / RFU, C1orf63 / Fold change vs veh, C1orf63 / RFU, LRRFIP1 / Fold change vs veh, LRRFIP1 / RFU, NDUFAF7 / Fold change vs veh, NDUFAF7 / RFU, SLC12A2 / Fold change vs veh, SLC12A2 / RFU, IBTK / Fold change vs veh, IBTK / RFU, ESF1 / Fold change vs veh, ESF1 / Fold change vs veh, TMEM50B / RFU, TAOK1 / Fold change vs veh, TAOK1 / RFU, ACBD3 / Fold change vs veh, ACBD3 / RFU, TMA16 / Fold change vs veh, TMA16 / RFU, RWDD3 / Fold change vs veh, RWDD3 / RFU, BCAT1 / Fold change vs veh, BCAT1 / RFU, EDEM3 / Fold change vs veh, EDEM3 / RFU, TMEM33 / Fold change vs veh, TMEM33 / RFU, WDR75 / Fold change vs veh, WDR75 / RFU, AHCTF1 / Fold change vs veh, AHCTF1 / RFU, TFRC / Fold change vs veh, TFRC / RFU, ZDHHC17 / Fold change vs veh, ZDHHC17 / RFU, NOM1 / Fold change vs veh, NOM1 / RFU, ARL8B / Fold change vs veh, ARL8B / RFU, ZBTB11 / Fold change vs veh, ZBTB11 / RFU, TAMM41 / Fold change vs veh, TAMM41 / RFU, KIAA1704 /// LOC100996395 / Fold change vs veh, KIAA1704 /// LOC100996395 / RFU, ING1 / Fold change vs veh, ING1 / RFU, TRMT61B / Fold change vs veh, TRMT61B / RFU, FUBP3 / Fold change vs veh, FUBP3 / RFU, TP53 / Fold change vs veh, TP53 / RFU, TNKS2 / Fold change vs veh, TNKS2 / RFU, ZFP14 / Fold change vs veh, ZFP14 / RFU, ACTR2 / Fold change vs veh, ACTR2 / RFU, PPP3R1 / Fold change vs veh, PPP3R1 / RFU, PIK3R1 / Fold change vs veh, PIK3R1 / RFU, HNRNPA1 / Fold change vs veh, HNRNPA1 / RFU, RNF170 / Fold change vs veh, RNF170 / RFU, ZNF28 / Fold change vs veh, ZNF28 / RFU, RNGTT / Fold change vs veh, RNGTT / RFU, OGT / Fold change vs veh, OGT / RFU, BRD1 / Fold change vs veh, BRD1 / RFU, MARS / Fold change vs veh, MARS / RFU, ZNF655 / Fold change vs veh, ZNF655 / RFU, FAHD1 / Fold change vs veh, FAHD1 / RFU, BDP1 / Fold change vs veh, BDP1 / RFU, LRRCC1 / Fold change vs veh, LRRCC1 / RFU, ARID1A / Fold change vs veh, ARID1A / RFU, ZNF146 / Fold change vs veh, ZNF146 / RFU, ZNF330 / Fold change vs veh, ZNF330 / RFU, GPN3 / Fold change vs veh, GPN3 / RFU, C9orf123 / Fold change vs veh, C9orf123 / RFU, N4BP2L2 / Fold change vs veh, N4BP2L2 / RFU, ARFIP1 / Fold change vs veh, ARFIP1 / RFU, FAM179B / Fold change vs veh, FAM179B / RFU, BCL10 / Fold change vs veh, BCL10 / RFU, UHRF1BP1L / Fold change vs veh, UHRF1BP1L / RFU, BET1 / Fold change vs veh, BET1 / RFU, CNOT2 / Fold change vs veh, CNOT2 / RFU, ZNF268 / Fold change vs veh, ZNF268 / Fold change vs veh, ZNF507 / RFU, DGCR2 / Fold change vs veh, DGCR2 / RFU, WDSUB1 / Fold change vs veh, WDSUB1 / Fold change vs veh, HSP90B1 /// MIR3652 / RFU, ADSS / Fold change vs veh, ADSS / RFU, GK / Fold change vs veh, GK / RFU, ZNF148 / Fold change vs veh, ZNF148 / RFU, TAF9 / Fold change vs veh, TAF9 / RFU, SLC1A5 / Fold change vs veh, SLC1A5 / RFU, SLMO2 / Fold change vs veh, SLMO2 / RFU, ABCC4 / Fold change vs veh, ABCC4 / RFU, LOC101060439 /// RAP1B / Fold change vs veh, LOC101060439 /// RAP1B / RFU, RFX7 / Fold change vs veh, RFX7 / RFU, GTPBP10 / Fold change vs veh, GTPBP10 / RFU, CNEP1R1 / Fold change vs veh, CNEP1R1 / RFU, BIVM-ERCC5 /// ERCC5 / Fold change vs veh, BIVM-ERCC5 /// ERCC5 / RFU, ILF3 / Fold change vs veh, ILF3 / RFU 11762660_at / Fold change /veh 11762660_at / RFU VCAN (11757783_s_at) / Fold change /veh VCAN (11757783_s_at) / RFU DDX43 (11728927_at) / Fold change /veh DDX43 (11728927_at) / RFU KRT8 (11758188_x_at) / Fold change /veh KRT8 (11758188_x_at) / RFU NKD1 (11759106_at) / Fold change /veh NKD1 (11759106_at) / RFU SRD5A1 (11742802_a_at) / Fold change /veh SRD5A1 (11742802_a_at) / RFU TPSAB1 /// TPSB2 (11721975_s_at) / Fold change /veh TPSAB1 /// TPSB2 (11721975_s_at) / RFU GSTM3 (11746129_a_at) / Fold change /veh GSTM3 (11746129_a_at) / RFU IL23R (11737362_x_at) / Fold change /veh IL23R (11737362_x_at) / RFU TMEM51 (11727254_a_at) / Fold change /veh TMEM51 (11727254_a_at) / RFU PIWIL2 (11732686_x_at) / Fold change /veh PIWIL2 (11732686_x_at) / RFU ORM1 (11744905_x_at) / Fold change /veh ORM1 (11744905_x_at) / RFU CCDC152 (11743942_at) / Fold change /veh CCDC152 (11743942_at) / RFU ECM1 (11717891_a_at) / Fold change /veh ECM1 (11717891_a_at) / RFU IL23R (11748794_a_at) / Fold change /veh IL23R (11748794_a_at) / RFU TNFAIP8L3 (11732012_x_at) / Fold change /veh TNFAIP8L3 (11732012_x_at) / RFU MBOAT4 (11741988_at) / Fold change /veh MBOAT4 (11741988_at) / RFU 11764193_at / Fold change /veh 11764193_at / RFU TMEM53 (11763286_at) / Fold change /veh TMEM53 (11763286_at) / RFU MAGEB2 (11727129_at) / Fold change /veh MAGEB2 (11727129_at) / RFU TMEM200A (11744735_a_at) / Fold change /veh TMEM200A (11744735_a_at) / RFU CCDC152 (11751479_a_at) / Fold change /veh CCDC152 (11751479_a_at) / RFU FAM211A (11726209_a_at) / Fold change /veh FAM211A (11726209_a_at) / RFU RGS16 (11746705_a_at) / Fold change /veh RGS16 (11746705_a_at) / RFU VCAN (11755009_s_at) / Fold change /veh VCAN (11755009_s_at) / RFU RHOB (11743442_s_at) / Fold change /veh RHOB (11743442_s_at) / RFU RGS16 (11720943_a_at) / Fold change /veh RGS16 (11720943_a_at) / RFU RGS16 (11720944_at) / Fold change /veh RGS16 (11720944_at) / RFU, VPS4B / Fold change vs veh, VPS4B / RFU, CREB1 / Fold change vs veh, CREB1 / RFU, DNAJC13 / Fold change vs veh, DNAJC13 / RFU, GNAQ / Fold change vs veh, GNAQ / RFU, CDK5R1 / Fold change vs veh, CDK5R1 / RFU, ZRANB3 / Fold change vs veh, ZRANB3 / RFU, CUL4A / Fold change vs veh, CUL4A / RFU, CCNY / Fold change vs veh, CCNY / RFU, UFL1 / Fold change vs veh, UFL1 / RFU, COG3 / Fold change vs veh, COG3 / RFU, DIAPH2 / Fold change vs veh, DIAPH2 / RFU, SKA2 / Fold change vs veh, SKA2 / RFU, AFF3 / Fold change vs veh, AFF3 / RFU, LMF1 / Fold change vs veh, LMF1 / RFU, IPO11 / Fold change vs veh, IPO11 / RFU, DFFB / Fold change vs veh, DFFB / RFU, FOXP1 / Fold change vs veh, FOXP1 / RFU, CARD8 / Fold change vs veh, CARD8 / RFU, STRN3 / Fold change vs veh, STRN3 / RFU, ADK / Fold change vs veh, ADK / RFU, RASSF2 / Fold change vs veh, RASSF2 / RFU, WIPF1 / Fold change vs veh, WIPF1 / RFU, LARP1B / Fold change vs veh, LARP1B / RFU, RASA1 / Fold change vs veh, RASA1 / RFU, RB1 / Fold change vs veh, RB1 / RFU, PPFIA1 / Fold change vs veh, PPFIA1 / RFU, MAT2A / Fold change vs veh, MAT2A / RFU, CCT5 / Fold change vs veh, CCT5 / RFU, WDR92 / Fold change vs veh, WDR92 / RFU, CUX1 / Fold change vs veh, CUX1 / RFU, TTC7A / Fold change vs veh, TTC7A / RFU, TMEM135 / Fold change vs veh, TMEM135 / RFU, DEPTOR / Fold change vs veh, DEPTOR / RFU, CPM / Fold change vs veh, CPM / RFU, DNAJB6 / Fold change vs veh, DNAJB6 / RFU, CACNA2D3 / Fold change vs veh, CACNA2D3 / RFU, DTX4 / Fold change vs veh, DTX4 / RFU, TFCP2 / Fold change vs veh, TFCP2 / RFU, GMCL1 /// GMCL1P1 / Fold change vs veh, GMCL1 /// GMCL1P1 / RFU, AEBP2 / Fold change vs veh, AEBP2 / RFU, SNHG1 /// SNORD22 /// SNORD25 /// SNORD26 /// SNORD27 /// SNORD28 /// SNORD29 /// SNORD31 / Fold change vs veh, SNHG1 /// SNORD22 /// SNORD25 /// SNORD26 /// SNORD27 /// SNORD28 /// SNORD29 /// SNORD31 / Fold change (Aza/veh), C12orf56 (ProbeSet 11735607_a_at) / Fold change (ACY-1035/veh), C12orf56 (ProbeSet 11735607_a_at) / Fold change (Aza/veh), FGFR1OP (ProbeSet 11751329_s_at) / Fold change (ACY-1035/veh), FGFR1OP (ProbeSet 11751329_s_at) / Fold change (Aza/veh), VPS36 (ProbeSet 11739960_a_at) / Fold change (ACY-1035/veh), VPS36 (ProbeSet 11739960_a_at) / RFU SYPL1 (11715823_x_at) / Fold change /veh SYPL1 (11715823_x_at) / RFU IGFBP7 (11715501_s_at) / Fold change /veh IGFBP7 (11715501_s_at) / RFU REEP3 (11722064_at) / Fold change /veh REEP3 (11722064_at) / RFU IGLL1 (11728026_x_at) / Fold change /veh IGLL1 (11728026_x_at): dose or concentration left out as unconfirmed
Settings: MV-4-11 cells, 48 hours

Nc1ncn([C@@H]2O[C@H](CO)[C@@H](O)[C@H]2O)c(=O)n1 [azacitidine]
Fold change /veh BIN1 (11741810_x_at): 1.02

From article PMC5218480 (PLoS ONE, 2017)
